Columns and labels:
[1] = test system: rat isolated aortic rings; assay: Vasodilatory capacity in noradrenaline pre-constricted aortic rings and mechanism of action (Protocol 2a/2b); conditions: for vasodilatory response: effect of high KCl levels: KCl 40 mM; for vasodilatory response: effect of nitro-L-arginine (NOLA): NOLA 10 μM; for vasodilatory response: effect of ODQ: ODQ 10 μM; for vasodilatory response: effect of removal of the endothelium: denuded vs intact endothelium; for vasodilatory response: effect of indomethacin: indomethacin 10 μM
Procedure: Male Sprague-Dawley rats (250±50 g) were gassed with 80% CO2 and 20% O2 until killed. The thoracic aorta was excised and quickly placed in ice-cold Krebs modified solution composed of NaCl […], […] 4.7 mM, MgSO4 7H2O 1.17 mM, NaHCO3 25 mM, KH2PO4 1.18 mM, CaCl2 2.5 mM, glucose 11 mM and EDTA 0.03 mM. It was then trimmed of fat and connective tissue and cut into 2-3 mm wide rings. Each ring was mounted on two parallel stainless steel hooks in a single water-jacketed 3 ml organ bath containing modified Krebs solution maintained at 37° C. and bubbled with 95% O2 plus 5% CO2. The lower hook was attached to a movable support leg and the upper hook to an FTO3 force transducer (Grass Scientific Instruments, Mitutoyo, Japan) for isometric recordings. Changes in force were amplified (Quadbridge amplifier, Scientific Concepts Inc., Victoria, Australia) and recorded on a MacLab 8E data acquisition system (Adinstruments Pty Ltd., NSW, Australia) linked to an Apple computer (Apple Computer Inc, Cupertina, Calif.). Rings were set at an initial tension of 2 g and allowed to equilibrate for 30 minutes after which time they were re-set to 2 g tension before the commencement of each experimental protocol.
A full concentration response to noradrenaline was obtained. From this the concentration producing a submaximal contraction of approximately 80% was selected (0.03-0.3 μM). The ring was then constricted with this submaximal concentration and allowed to plateau before full concentration-relaxation curves were obtained to β-estradiol and Cpds. 5, 7, 8 and 12 and the vehicle DMSO (at equi-volume). Only one compound was studied with any one ring from any one animal.
Full relaxation curves were obtained to Cpds. 5, 7, 8 and 12 and β-estradiol in the absence and presence of the endothelium (rings were denuded of endothelium by gentle rotation of the lumen against a rough surface), the nitric oxide synthase inhibitor nitro-L-arginine (NOLA 10 μM; with the exception of Cpd. 8, due to limited supply of the compound), KCl 40 mM (to inhibit endothelium derived hyperpolarising factor), the cyclo-oxygenase inhibitor indomethacin (10 μM) and the soluble guanylate cyclase inhibitor 1H-[1,2,4]oxadiazolo[4,3-a]quinoxalin-1-one (ODQ; 10 μM). Only one compound with only one intervention was tested on any one ring from any one animal.
Contractile responses are expressed in g tension (mean+standard error of the mean). Dilatory responses are expressed as a percentage of the contractile force generated by the pre-constricting agent used. Individual concentration-response curves for noradrenaline and acetylcholine±the interventions used were fitted to a logistic equation of the form […] where E is the response, M is the maximum response and K is the concentration eliciting 50% of the maximum response (ie neg log EC50).

[2] = test system: Human umbilical vein endothelial cells; assay: Endothelial cell proliferation assay; type: cell-based; conditions: Cpd. 8 1-10 mg/ml; for endothelial cell proliferation (in words): 3 days, two donors, Cpd. 5, 7, 12 0.01-10 mg/ml; for toxicity to endothelial cells: Cpd. 12 0.01-10 mg/ml
Procedure: Human umbilical vein endothelial cells between passage 1 and 3 were used. Cells were grown in gelatin coated flasks in medium 199 with Earle's Salts supplemented with 20% foetal calf serum, 25 mg/ml endothelial cell growth supplement and 25 mg/ml heparin. Cells from two different donors were used.
5×10^3 cells in […] growth medium were plated into gelatin coated microtitre wells. The test compounds were added at plating. The cells were then incubated for 3 days and cell number determined by a calorimetric assay (CellTiter96 Aqueous assay, Promega). Results were compared to a standard curve performed in each experiment. Two different endothelial cell isolates were used and the assays were performed on two different days. The effect of isoflavone derivatives on the proliferation of human umbilical vein endothelial cells are shown for donor No. 1 (FIG. 15) and donor No. 2 (FIG. 16).

LDL receptor = LDL receptor expression on HepG2 cells, [125I]-LDL specific binding; type: cell-based, human; conditions: 10 μM; for concentration dependence of LDL receptor expression: 50 nM, 500 nM; for LDL receptor expression, Experiment 3 / LDL receptor expression, Experiment 2 / LDL receptor expression, Experiment 1: 48 hours; for LDL receptor expression, Experiment 3: control 130 ± 18; for LDL receptor expression, Experiment 2: control 261 ± 57; for LDL receptor expression, Experiment 1: control 283 ± 32
[3] = test system: horseradish peroxidase (HRP) plus hydrogen peroxide (H2O2); assay: Peroxidase-induced (HRP/H2O2) oxidation of linoleate; type: biochemical, horse radish; parameters: dose or concentration left out as unconfirmed
Description: The test is similar to the peroxyl scavenging described in section 4.5 above, except that horseradish peroxidase (HRP) plus hydrogen peroxide (H2O2), were used instead of the peroxyl radical generator. Increased level of heme is considered as a potential risk factor for atherosclerosis, and heme-containing proteins may be involved in the oxidative modification of LDL. In the presence of H2O2, heme proteins give rise to a powerful oxidant (referred to as compound I) that can oxidatively modify lipids, including those in LDL. We therefore tested the ability of the isoflavone to inhibit such lipid oxidation using horse radish peroxidase as the model heme protein. HRP/H2O2-induced oxidation of linoleate was as described principally by Witting et al (1997) by replacing LDL with linoleate. Linoleate stock was added to PBS at 37° C. to give a final concentration of 300 mM and oxidized by HRP (40 U/mL)/H2O2 (2 mM) in the absence and presence of either 10 mM of Cpd. 7, Cpd. 8 or Cpd. 12, or 25 mM BHT (positive control). Formation of linoleate hydroperoxide was monitored by UV 234 nm using the Perkin Elmer's UV/Vis Lambda 40 spectrophotometer. The test was performed twice as single analysis. An appropriate concentration of alcohol (ethanol and isopropanol; 0.13% -0.2% v/v) was included in the respective control samples.

Q: For `O=C1c2ccc(O)cc2OCC1c1ccc(O)cc1` (stereo not drawn) [Cpd. 5], which “vasodilatory response: effect of high KCl levels” value [1] is on record?
A: The value was “inhibited”.

Q: And the “vasodilatory response: effect of nitro-L-arginine (NOLA)” value [1]?
A: Its value is “inhibited”.

Q: And the “vasodilatory response: effect of ODQ” value [1]?
A: Its value is “inhibited”.

Q: And the “vasodilatory response: effect of removal of the endothelium” value [1]?
A: The value was “inhibited”.

Q: What about the “vasodilatory response: effect of indomethacin” value [1] of the same compound?
A: Its value is “did not influence”.

Q: And the “endothelial cell proliferation (in words)” value [2]?
A: The value was “no apparent effect on endothelial cell proliferation”.

Q: What does the source list for `Oc1ccc(C2COc3cc(O)ccc3C2O)cc1` (stereo not drawn) [Cpd. 7]?
A: concentration dependence of LDL receptor expression (LDL receptor): increased concentration-dependently; LDL receptor expression, Experiment 3 (LDL receptor): 194 ± 46 fmol LDL receptors per mg cell protein; LDL receptor expression, Experiment 2 (LDL receptor): 306 ± 70 fmol LDL receptors per mg cell protein; LDL receptor expression, Experiment 1 (LDL receptor): 332 ± 46 fmol LDL receptors per mg cell protein; vasodilatory response: effect of high KCl levels [1]: inhibited; vasodilatory response: effect of nitro-L-arginine (NOLA) [1]: trend towards inhibition of these responses by NOLA but this was not statistically significant; vasodilatory response: effect of ODQ [1]: inhibited; vasodilatory response: effect of removal of the endothelium [1]: inhibited; vasodilatory response: effect of indomethacin [1]: did not influence; endothelial cell proliferation (in words) [2]: no appreciable antiproliferative action; inhibition of linoleic acid oxidation by HRP/H2O2 compound I (in words) [3]: able to inhibit linoleic acid oxidation by compound I as effectively as 25 mM BHT

Q: For `Oc1ccc(C2COc3cc(O)ccc3C2O)cc1` (stereo not drawn) [Cpd. 8], which “concentration dependence of LDL receptor expression” value (LDL receptor) is on record?
A: Its value is “no clear concentration-dependent effect”.

Q: And the “LDL receptor expression, Experiment 3” value (LDL receptor)?
A: Its value is 143 ± 34 fmol LDL receptors per mg cell protein.

Q: And the “LDL receptor expression, Experiment 2” value (LDL receptor)?
A: Its value is 273 ± 57 fmol LDL receptors per mg cell protein.

Q: What about the “LDL receptor expression, Experiment 1” value (LDL receptor) of the same compound?
A: Its value is 315 ± 24 fmol LDL receptors per mg cell protein.

Q: And the “vasodilatory response: effect of high KCl levels” value [1]?
A: Its value is “inhibited”.

Q: And the “vasodilatory response: effect of ODQ” value [1]?
A: The value was “but not by ODQ”.

Q: And the “vasodilatory response: effect of removal of the endothelium” value [1]?
A: Its value is “inhibited”.

Q: What about the “vasodilatory response: effect of indomethacin” value [1] of the same compound?
A: Its value is “potentiated”.

Q: What about the “endothelial cell proliferation (in words)” value [2] of the same compound?
A: Its value is “inhibited cellular proliferation”.

Q: What about the “toxicity to endothelial cells” value [2] of the same compound?
A: Its value is “did not cause toxicity”.

Q: And the “inhibition of linoleic acid oxidation by HRP/H2O2 compound I (in words)” value [3]?
A: Its value is “able to inhibit linoleic acid oxidation by compound I as effectively as 25 mM BHT”.

Q: Which results are given for `Oc1ccc(C2=Cc3ccc(O)cc3OC2)cc1` [Cpd. 12]?
A: LDL receptor expression, Experiment 3 (LDL receptor): 174 ± 35 fmol LDL receptors per mg cell protein; LDL receptor expression, Experiment 2 (LDL receptor): 161 ± 35 fmol LDL receptors per mg cell protein; LDL receptor expression, Experiment 1 (LDL receptor): 290 ± 42 fmol LDL receptors per mg cell protein; vasodilatory response: effect of high KCl levels [1]: inhibited; vasodilatory response: effect of removal of the endothelium [1]: inhibited; endothelial cell proliferation (in words) [2]: inhibited cellular proliferation; toxicity to endothelial cells [2]: did not cause toxicity; inhibition of linoleic acid oxidation by HRP/H2O2 compound I (in words) [3]: inhibitory activity of Cpd. 7 and Cpd. 8 was greater than of an equimolar amount of Cpd. 12

— US20050119301A1, “Treatment of restenosis” (priority 2001, published 2005)
